# Test results: US20250282785A1, “PYRROLIDINONE DERIVATIVES AS INHIBITORS OF NF KAPPA B INDUCING KINASE” (priority 2022, published 2025)
# What was measured:
# [1] = target: Recombinant Human NF-Kappab-Inducing Kinase (NIK/MAP3K14) (Homo sapiens, UniProt Q99558); assay: Inhibition of auto-phosphorylation of recombinant human NIK/MAP3K14 (AlphaScreen); assay type: biochemical; settings: NIK/MAP3K14 auto-phosphorylation, 5 microM ATP, 1 nM enzyme, 2 h at 25° C.; average of values; read-out: Assay 1 IC50
# Method in brief: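 AlphaScreen read-out used anti-phospho-IKK Ser176/180 antibody after 2 h, 25 °C incubation of compound, 1 nM GST-NIK and 5 µM ATP (final DMSO 0.7%). Percent inhibition referenced to high (enzyme) and low (no enzyme, no ATP) controls; sigmoidal curve fitting gave IC50.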
# [2] = tested on: p-IKKα levels in L363 (NIK translocated multiple myeloma) cells; assay: Effect of compounds on p-IKKα levels in L363 cells (AlphaLISA SureFire Ultra); assay type: cell-based; settings: Homo sapiens, L-363; L363 cells, BAFF stimulated, MG132, 6 h; average of values; read-out: Assay 2 IC50
# Method in brief: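 Phospho-IKKα (Ser 176/180) was quantified by AlphaLISA in lysed L363 cells after 6 h compound exposure (0.3% DMSO, 11 points, 1:3) alongside 250 ng/ml BAFF and 10 uM MG132, following overnight BAFF priming in low-serum DMEM. Duplicate curves were scaled between BAFF/DMSO/MG132 and unstimulated DMSO wells, then fitted sigmoidally for IC50.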
# Chain of Recombinant Human NF-Kappab-Inducing Kinase (NIK/MAP3K14) (Q99558 whole entry): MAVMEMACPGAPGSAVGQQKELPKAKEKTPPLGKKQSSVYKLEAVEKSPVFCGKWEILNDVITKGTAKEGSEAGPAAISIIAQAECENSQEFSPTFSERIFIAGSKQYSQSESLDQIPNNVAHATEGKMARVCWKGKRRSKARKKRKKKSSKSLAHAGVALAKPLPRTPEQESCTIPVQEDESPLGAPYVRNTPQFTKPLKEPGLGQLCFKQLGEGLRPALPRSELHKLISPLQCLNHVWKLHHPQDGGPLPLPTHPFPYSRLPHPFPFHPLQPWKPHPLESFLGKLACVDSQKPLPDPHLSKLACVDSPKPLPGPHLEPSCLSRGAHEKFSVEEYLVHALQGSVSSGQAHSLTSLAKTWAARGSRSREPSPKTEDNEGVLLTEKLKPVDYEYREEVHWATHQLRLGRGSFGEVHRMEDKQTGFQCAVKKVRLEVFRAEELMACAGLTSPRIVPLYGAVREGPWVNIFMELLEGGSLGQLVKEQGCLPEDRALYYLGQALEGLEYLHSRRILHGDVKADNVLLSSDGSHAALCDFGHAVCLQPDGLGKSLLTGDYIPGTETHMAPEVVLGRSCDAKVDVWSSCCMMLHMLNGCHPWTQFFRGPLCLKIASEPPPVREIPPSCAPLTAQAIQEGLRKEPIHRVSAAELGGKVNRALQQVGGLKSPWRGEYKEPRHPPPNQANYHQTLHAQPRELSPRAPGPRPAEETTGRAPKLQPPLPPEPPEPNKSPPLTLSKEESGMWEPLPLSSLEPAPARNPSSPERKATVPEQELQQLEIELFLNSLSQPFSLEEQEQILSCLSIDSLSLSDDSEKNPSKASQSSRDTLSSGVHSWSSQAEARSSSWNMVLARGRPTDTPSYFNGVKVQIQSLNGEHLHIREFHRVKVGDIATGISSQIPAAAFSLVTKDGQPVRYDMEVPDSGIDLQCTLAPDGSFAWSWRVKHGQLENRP
Compound,IC50 [1] [nM],IC50 [2] [nM]
"Cc1nc2cc(-c3cccc(-c4cc([C@]5(O)CCN(C)C5=O)on4)c3)ccc2o1 [Example 63, (R)-3-Hydroxy-1-methyl-3-(3-(3-(2-methylbenzo[d]oxazol-5-yl)phenyl)isoxazol-5-yl)pyrrolidin-2-one]",> 501,> 501
"CN1CC[C@@](O)(c2cc(-c3ccc(F)c(-c4cc(C(F)(F)F)cc(C(N)=O)n4)c3)no2)C1=O [Example 240, (R)-6-(2-Fluoro-5-(5-(3-hydroxy-1-methyl-2-oxopyrrolidin-3-yl)isoxazol-3-yl)phenyl)-4-(trifluoromethyl)picolinamide]",< 100,> 501
"CN1CC[C@@](O)(c2cc(-c3cccc(-c4sc(Br)nc4C(N)=O)c3)no2)C1=O (single isomer, unassigned) [Example 214]",> 501,> 501
"CN1CCC(O)(c2cc(-c3cccc(-c4nccc(C(N)=O)n4)c3)on2)C1=O (racemic) [Example 161, (R,S)-2-(3-(3-(3-Hydroxy-1-methyl-2-oxopyrrolidin-3-yl)isoxazol-5-yl)phenyl)pyrimidine-4-carboxamide]",< 100,> 501
"CN1CC[C@@](O)(c2cc(-c3cccc(-c4nc(C(N)=O)c(C5CC5)s4)c3)no2)C1=O [Example 208, (R)-5-Cyclopropyl-2-(3-(5-(3-hydroxy-1-methyl-2-oxopyrrolidin-3-yl)isoxazol-3-yl)phenyl)thiazole-4-carboxamide]",< 100,100 to 500
"CN1CC[C@@](O)(c2cc(-c3cccc(-c4nc(C(N)=O)cs4)c3)no2)C1=O [Example 204, (R)-2-(3-(5-(3-Hydroxy-1-methyl-2-oxopyrrolidin-3-yl)isoxazol-3-yl)phenyl)thiazole-4-carboxamide]",< 100,> 501
"CN1CC[C@@](O)(c2cc(-c3cccc(-c4ccn5nccc5n4)c3)no2)C1=O [Example 68, (R)-3-Hydroxy-1-methyl-3-(3-(3-(pyrazolo[1,5-a]pyrimidin-5-yl)phenyl)isoxazol-5-yl)pyrrolidin-2-one]",> 501,> 501
"CN1CC[C@@](O)(c2cc(-c3cccc(-c4ccc(NCC5COC5)c(C(N)=O)n4)c3)no2)C1=O [Example 106, (R)-6-(3-(5-(3-Hydroxy-1-methyl-2-oxopyrrolidin-3-yl)isoxazol-3-yl)phenyl)-3-((oxetan-3-ylmethyl)amino)picolinamide]",< 100,100 to 500
"CN1CC[C@@](O)(c2cc(-c3cccc(-c4cnc(N)c(C(N)=O)n4)c3)no2)C1=O [Example 110, (R)-3-Amino-6-(3-(5-(3-hydroxy-1-methyl-2-oxopyrrolidin-3-yl)isoxazol-3-yl)phenyl)pyrazine-2-carboxamide]",< 100,< 100
"COc1nc(-c2cccc(-c3cc([C@]4(O)CCN(C)C4=O)on3)c2)nc(OC)c1N [Example 136, (R)-3-(3-(3-(5-Amino-4,6-dimethoxypyrimidin-2-yl)phenyl)isoxazol-5-yl)-3-hydroxy-1-methylpyrrolidin-2-one]",100 to 500,> 501
"CN1CCC(O)(c2cc(-c3cccc(-c4c[nH]c5ncccc45)c3)on2)C1=O (racemic) [Example 9, (R,S)-3-(5-(3-(1H-Pyrrolo[2,3-b]pyridin-3-yl)phenyl)isoxazol-3-yl)-3-hydroxy-1-methylpyrrolidin-2-one]",100 to 500,> 501
"CN1CC[C@@](O)(c2cc(-c3cccc(-c4ncnc5sccc45)c3)no2)C1=O [Example 72, (R)-3-Hydroxy-1-methyl-3-(3-(3-(thieno[2,3-d]pyrimidin-4-yl)phenyl)isoxazol-5-yl)pyrrolidin-2-one]",> 501,> 501
"CCn1nc(C(F)(F)F)cc1-c1cc(C(N)=O)nc(-c2cccc(-c3cc([C@]4(O)CCN(C)C4=O)on3)c2)c1 [Example 188, (R)-4-(1-Ethyl-3-(trifluoromethyl)-1H-pyrazol-5-yl)-6-(3-(5-(3-hydroxy-1-methyl-2-oxopyrrolidin-3-yl)isoxazol-3-yl)phenyl)picolinamide]",< 100,> 501
"CN1CC[C@@](O)(c2cc(-c3cccc(-c4ccc5[nH]nc(N)c5n4)c3)on2)C1=O [Example 17, (R)-3-(5-(3-(3-Amino-1H-pyrazolo[4,3-b]pyridin-5-yl)phenyl)isoxazol-3-yl)-3-hydroxy-1-methylpyrrolidin-2-one]",< 100,> 501
"CN1CC[C@@](O)(c2cc(-c3cccc(-c4cc(C(N)=O)nc5[nH]ccc45)c3)no2)C1=O [Example 94, (R)-4-(3-(5-(3-Hydroxy-1-methyl-2-oxopyrrolidin-3-yl)isoxazol-3-yl)phenyl)-1H-pyrrolo[2,3-b]pyridine-6-carboxamide]",> 501,> 501
"CN1CC[C@@](O)(c2cc(-c3cccc(-c4cc(-c5ccnn5C)cc(C(N)=O)n4)c3)no2)C1=O [Example 182, (R)-6-(3-(5-(3-Hydroxy-1-methyl-2-oxopyrrolidin-3-yl)isoxazol-3-yl)phenyl)-4-(1-methyl-1H-pyrazol-5-yl)picolinamide]",< 100,> 501
"CN1CC[C@@](O)(c2cc(-c3cccc(-c4cc(C(N)=O)ccn4)n3)no2)C1=O [Example 198, (R)-6′-(5-(3-Hydroxy-1-methyl-2-oxopyrrolidin-3-yl)isoxazol-3-yl)-[2,2′-bipyridine]-4-carboxamide]",100 to 500,> 501
"CN1CC[C@@](O)(c2cc(-c3cccc(-c4ncc(NC5CC5)c(C(N)=O)n4)c3)no2)C1=O [Example 111, (R)-5-(Cyclopropylamino)-2-(3-(5-(3-hydroxy-1-methyl-2-oxopyrrolidin-3-yl)isoxazol-3-yl)phenyl)pyrimidine-4-carboxamide]",< 100,< 100
"[2H]C([2H])([2H])N1CC[C@@](O)(c2cc(-c3cccc(-c4cc(C5CC5)c(N)c(C(N)=O)n4)c3)no2)C1=O [Example 179, (R)-3-Amino-4-cyclopropyl-6-(3-(5-(3-hydroxy-1-(methyl-d3)-2-oxopyrrolidin-3-yl)isoxazol-3-yl)phenyl)picolinamide]",< 100,< 100
"CN1CC[C@@](O)(c2cc(-c3cccc(-c4nc(C(N)=O)c(CN)s4)c3)no2)C1=O [Example 237, (R)-5-(Aminomethyl)-2-(3-(5-(3-hydroxy-1-methyl-2-oxopyrrolidin-3-yl)isoxazol-3-yl)phenyl)thiazole-4-carboxamide]",< 100,> 501
"CN1CC[C@@](O)(c2cc(-c3cccc(-c4cncc(C(N)=O)n4)c3)no2)C1=O [Example 147, (R)-6-(3-(5-(3-Hydroxy-1-methyl-2-oxopyrrolidin-3-yl)isoxazol-3-yl)phenyl)pyrazine-2-carboxamide]",< 100,> 501
"COc1cn(C)nc1Nc1cnc(-c2cccc(-c3cc([C@]4(O)CCN(C)C4=O)on3)c2)nc1C(N)=O [Example 144, (R)-2-(3-(5-(3-Hydroxy-1-methyl-2-oxopyrrolidin-3-yl)isoxazol-3-yl)phenyl)-5-((4-methoxy-1-methyl-1H-pyrazol-3-yl)amino)pyrimidine-4-carboxamide]",< 100,< 100
